From article PMC6843521, “Discrimination of Oviposition Deterrent Volatile β-Ionone by Odorant-Binding Proteins 1 and 4 in the Whitefly Bemisia tabaci” (Biomolecules, 2019)
Structures can show the parent of a compound that is named as a salt. Where two headings read alike, the source gives them in different places.

What was measured:
[1] = target: T1, OBP1 (Bemisia tabaci, UniProt A0A1S6JPY5); experiment: Fluorescence competitive binding assay, recombinant OBP1 with 1-NPN probe
Method: (§1) N-Phenyl-1-naphthylamine (1-NPN), 4,4′-Dianilino-1,1′-binaphthyl-5,5′-disulfonic acid dipotassium salt (bis-ANS), β-ionone, α-ionone, and […] were diluted with chromatographic-grade methanol to a final concentration of 1 mmol·L^−1, and the protein was diluted with 50 mM Tris-HCl (pH 7.4) to a final concentration of 2 μmol·L^−1. When 1-NPN was used as fluorescent probe, the excitation wavelength of the fluorescence spectrophotometer was set to 337 nm, and the scanning range was 350−500 nm. When bis-ANS was used as fluorescent probe, the excitation wavelength of the fluorescence spectrophotometer was set to 295 nm, and the scanning range was 300−550 nm. The fluorescent probe was gradually added to the protein-containing quartz tube to make it close to saturation. According to the Scatchard equation [35], the binding dissociation constants K1-NPN of OBP1 and the fluorescent probe 1-NPN and Kbis-ANS of OBP4 and fluorescent probe bis-ANS were determined. Protein and fluorescent probes were added to the quartz dish (the final concentration was 2 μM), and ionone was gradually added to determine the binding ability of the protein and ionone, and the dissociation constant Ki was calculated using the formula: Ki = [IC50]/(1 + [L]/KL), where [IC50] is the concentration of the ligand at which the fluorescence intensity is reduced by half, [L] is the concentration of the free fluorescent probe, and KL is the binding dissociation constant of the protein and the fluorescent probe. N-Phenyl-1-naphthylamine (1-NPN, Chemical Abstract Service (CAS): 90-30-2), 4,4’-dianilino-1,1’-binaphthyl-5,5’-disulfonic acid dipotassium salt (bis-ANS, CAS: 65664-81-5), methanol (CAS: 67-56-1), α-ionone (CAS: 127-41-3), β-ionone (CAS: 14901-07-6), and dihydro-β-ionone (CAS: 17283-81-7) were purchased from Sigma-Aldrich (St. Louis, MO, USA).

[2] = target: T2, OBP4 (Bemisia tabaci, UniProt A0A1S6JPY9); experiment: Fluorescence competitive binding assay, recombinant OBP4 with bis-ANS probe
T2 sequence (A0A1S6JPY9 entry or part of it): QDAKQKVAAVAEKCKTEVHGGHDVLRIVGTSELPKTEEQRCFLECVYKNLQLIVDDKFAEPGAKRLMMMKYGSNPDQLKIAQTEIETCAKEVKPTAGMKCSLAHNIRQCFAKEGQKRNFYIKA
Method: as §1

[3] = target: T1, OBP1; experiment: Fluorescence competitive binding, OBP1 with bis-ANS as probe (Figure S2C)
Method: as §1

[4] = target: T2, OBP4; experiment: Fluorescence competitive binding, OBP4 with 1-NPN as probe (Figure S2D); details: OBP4, 1-NPN as probe
Method: as §1

[5] = tested on: B. tabaci; details: cited from earlier work
[6] = target: OBP8; set-up: method as in doi:10.1016/j.cropro.2009.10.001, PMID 19458158; details: B. tabaci OBP8; ref [9],[31]; cited from earlier work
[7] = tested on: flea beetle; set-up: method as in Caceres et al. [10]; details: ref Caceres et al. [10]; cited from earlier work
[8] = tested on: spider mite; set-up: method as in Caceres et al. [10]; details: ref Caceres et al. [10]; cited from earlier work

T1 sequence (A0A1S6JPY5 entry or part of it): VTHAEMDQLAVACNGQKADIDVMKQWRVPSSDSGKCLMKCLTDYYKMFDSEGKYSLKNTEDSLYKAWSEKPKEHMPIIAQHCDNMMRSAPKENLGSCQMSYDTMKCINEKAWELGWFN

Row | Structure (SMILES) | binding ability (words) ([1]; OBP1, 1-NPN probe) | binding ability (words) ([2]; OBP4, bis-ANS probe) | binding ability (words) [3] | binding ability (words) [4] | IC50 [1] | IC50 [2] | also measured
1 | c1ccc(Nc2cccc3ccccc23)cc1 [1-NPN, N-Phenyl-1-naphthylamine, reference compound] | – | – | – | – | – | – | Kd [1]: 3.38 µM
2 | O=S(=O)(O)c1cccc2c(-c3ccc(Nc4ccccc4)c4c(S(=O)(=O)O)cccc34)ccc(Nc3ccccc3)c12 [bis-ANS, 4,4′-Dianilino-1,1′-binaphthyl-5,5′-disulfonic acid dipotassium salt, reference compound] | – | – | – | – | – | – | Kd ([2]; OBP4 2 μmol·L^−1, 50 mM Tris-HCl pH 7.4, excitation 295 nm, read-out: dissociation constant of fluorescent probe (Scatchard)): 2680 nM
3 | CC(=O)CCC1=C(C)CCCC1(C)C [dihydro-β-ionone] | hardly displaced the fluorescent probe | hardly displaced the fluorescent probe | did not | did not | – | – | IC50 ([1]; OBP1, 1-NPN probe, dash symbol of Table S2, read-out: IC50): > 50 µM; IC50 ([2]; OBP4, bis-ANS probe, dash symbol of Table S2, read-out: IC50): > 50 µM
4 | CC(=O)/C=C/C1C(C)=CCCC1(C)C (stereo not drawn) [α-ionone] | weak binding | weak binding | did not | did not | 40.1 µM | 21.1 µM | binding ability (words) ([1]; OBP1, 1-NPN probe, listed as α-Ionone): weaker binding; binding ability (words) ([2]; OBP4, bis-ANS probe, listed as α-Ionone): weaker binding; ovipositioning repellent to whitefly ([5]; doses of 0.05 ng/μL and 0.5 ng/μL, ref [10]): weak ovipositioning repellent
5 | CC(=O)/C=C/C1=C(C)CCCC1(C)C [β-ionone] | – | – | bonded well | bonded well | 7.16 µM | 5.14 µM | B. tabaci egg production ([5]; concentrations of 0.1 ng/μL and 0.5 ng/μL, ref Cáceres et al. [10]): significantly inhibit; oviposition deterrence to whiteflies ([5]; ref Caceres et al. [10]): significant oviposition deterrence; Ki [6]: 13.3 µM; repellent effect [7]: strong repellent effect; repellent effect [8]: strong repellent effect
